# Source: PubChem BioAssay AID624491 (Broad Institute, 2012)
# The source made the active and inactive calls.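 The calls were made as follows: active = fitted curve crossing a set activation limit at or below the highest valid dose tested; inconclusive = flat fit at 30 to 70% activation, or poor fit; inactive = the rest, including signal decreases.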
# Test system: D54 ERlucT glycosylation luciferase reporter, luminescence, 24 h
# Test: blockers of NLG process in reporter cells – D54 ERlucT cells, luminescence, cherry-picks, dose response (AID 624491);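 also: signal gain reflects blocked N-linked glycosylation of a luciferase reporter; actives raise luciferase signal so AC26 marks activators of the reporter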
row,Structure (SMILES),AC26
1,COc1cc(Nc2c3c(nc4ccccc24)CCCC3)cc(OC)c1OC,581 nM
2,COC(=O)c1ccccc1NC(=O)Cn1nnc(-c2ccc(OC)cc2)n1,> 19500 nM (inactive)
3,CCCOC(=O)c1[nH]c2c(c1C)C(=O)CC(c1cccs1)C2 (centres undefined),623 nM
4,O=C(C[C@@H]1C[C@H]2c3cc(NC(=O)c4cccnc4)ccc3O[C@H]2[C@H](CO)O1)NCc1ccc(Oc2ccccc2)cc1,8780 nM
5,Cn1nc(C(=O)Nc2cccc(S(=O)(=O)N3CCCCC3)c2)c2ccccc2c1=O,284 nM
6,O=C(NC(=C(Cl)Cl)S(=O)(=O)c1ccc(Cl)cc1)c1ccccc1,594 nM
7,CC1=CC(C)[C@H](/C=N/n2c(=O)[nH]c3c([nH]c4ccc(Br)cc43)c2=O)C(C)C1 (some centres undefined),3780 nM
8,Cc1ccc(-c2cc(C(=O)Nc3ccncc3)c3ccccc3n2)cc1,1910 nM
9,CNC(=O)c1cccc(NC(=O)c2ccccc2OCc2ccccc2)c1,355 nM
10,CN(C)CCNc1cccc2sc3ccc(O)cc3c(=O)c12,500 nM
11,COc1ccc(Nc2nc(N)c(C(=O)c3ccc(OC)cc3)s2)cc1,483 nM
12,NC(=O)CC(NC(=O)Cc1ccc(Br)cc1)c1ccc(NC2CC3CCC2C3)c([N+](=O)[O-])c1 (centres undefined),32.6 nM
13,Cn1cnc(Sc2ncnc3nc[nH]c23)c1[N+](=O)[O-],1140 nM
14,C[C@@H](NC(=O)c1ncn2c1c(=O)[nH]c1ccc(Br)cc12)c1ccccc1,2060 nM
15,COc1cccc(Sc2ccccc2/C=N/NC(N)=O)c1,8340 nM
16,CC(C)Oc1ccc(C(=O)/C=C2/C(=O)Nc3ccccc32)cc1,3230 nM
17,COc1ccc(-c2cc(C(=O)NCC(c3ccccc3)N(C)C)c3ccccc3n2)cc1OC (centres undefined),1320 nM
18,COc1c(Br)cc(Br)cc1/C=N/NC(=O)c1cccnc1,10200 nM
19,C=CCN(CC=C)S(=O)(=O)c1ccc(C(=O)Nc2nc3c(s2)CCc2ccccc2-3)cc1,6790 nM
20,CCCCCCC(=O)N(O)C1CC(=O)N(Cc2ccccc2)C1=O (centres undefined),6200 nM
21,Cc1ccnc(NC(=O)CCCOc2cc(=O)n(C)c3ccccc23)c1,14900 nM
22,CCOc1ccc(NC(=O)c2cc(OC)nc3ccccc23)cc1,284 nM
23,COc1ccc(NC2=C(C)C(=O)CC2)cc1,2940 nM
24,O=C(/C=C/c1cccc([N+](=O)[O-])c1)c1ccc2c(c1)OCCO2,3330 nM
25,COc1cc2c(cc1OC)C(=O)N1[C@H]3c4cc(Cl)ccc4OC[C@@H]3[C@H](c3ccccc3)[C@]1(C)C(=O)N2,609 nM
26,COC(=O)C1=C(c2cc3ccccc3s2)C[C@@H]2CC[C@H]1N2C(=O)N1CCOCC1,13600 nM
27,O=C(CC1Nc2ccccc2NC1=O)Nc1ccccc1 (centres undefined),4880 nM

row,Structure (SMILES),AC26
1,Cc1ccc2c(c1)C(=O)N1[C@H]3c4cc(C)ccc4OC[C@@H]3[C@H](c3ccccc3)[C@]1(C)C(=O)N2,26.4 nM
2,CC(=O)O[C@H]1C(=O)[C@@]2(C)C([C@H](OC(=O)c3ccccc3)[C@]3(O)C[C@H](O)C(C)=C1C3(C)C)[C@]1(OC(C)=O)CO[C@@H]1C[C@H]2O (some centres undefined),6460 nM
3,CN(C)CCCNc1cc(-c2ccccc2)nc2cc(-c3cccc(F)c3)nn12,5210 nM
4,O=C(NCc1ccco1)c1nn2c(C(F)(F)F)cc(-c3cccs3)nc2c1Br,3250 nM
5,COc1cc2c(cc1OC)C(c1ccccc1)N(C(=O)c1cccc(S(C)(=O)=O)c1)CC2 (centres undefined),193 nM
6,CCCNc1nc2ccccc2n2c(C)nnc12,2980 nM
7,CCCCN(CC)CCCNC(=O)c1cc2c(=O)n(C)c3ccccc3c2n1C,3310 nM
8,COc1ccc(/C=C/C(=O)c2ccc3c(c2)OCCO3)cc1[N+](=O)[O-],5050 nM
9,CC(C)OCC(O)CN1CCN(CCN2C(=O)c3cccc4cccc(c34)C2=O)CC1 (centres undefined),7110 nM
10,Cc1cc(=O)[nH]c(N/N=C/c2cc(C)n(CC(F)(F)F)c2C)n1,47.6 nM
11,O=C1CCCC2=C1C(c1ccco1)Nc1ccc(C(=O)c3ccccc3)cc1N2 (centres undefined),16500 nM
12,CCn1c(=S)[nH]c2cc(S(=O)(=O)N3CCCCC3)ccc21,1090 nM
13,Cc1ccnc2nc(C(=O)Nc3cc(Cl)ccc3N3CCOCC3)nn12,659 nM
14,c1ccc(N=Nc2ccc3cccccc2-3)cc1,2060 nM
15,COc1ccc(C(=O)/C=C/c2ccc(OC)c(O)c2)c(F)c1,4860 nM
16,Cc1ccccc1NS(=O)(=O)c1ccc2c3c(cccc13)C(=O)N2C,3400 nM
17,CCOC(=O)/C=C/C(=O)Nc1ccc(S(=O)(=O)N(C)c2ccccc2)cc1,> 5000 nM (inactive)
18,COc1cccc(OCc2nc3ncc(Br)cc3[nH]2)c1,1810 nM
19,O=C(NO)c1ccc(OC(F)F)cc1,3430 nM
20,Cc1cccc(NC(=O)c2cnn3ccccc23)c1C,9570 nM
21,Cc1ccc(COc2ccccc2-c2cc(C(=O)N/N=C/c3cccnc3)[nH]n2)cc1,5260 nM
22,COc1cc(-c2cc3nc(NCCc4ccncc4)ccn3n2)cc(OC)c1OC,798 nM
23,CCOC(=O)c1cc2sccc2n1CC(=O)N1CCc2ccccc21,7500 nM
24,Cc1ccc(C(=O)c2cc([N+](=O)[O-])ccc2N2CCOCC2)cc1C,168 nM
25,COc1ccc(CCn2c(=N)c(C(=O)NCc3ccco3)cc3c(=O)n4ccccc4nc32)cc1OC,6410 nM
26,Cc1cccn2c(=O)c3cc(C(=O)NCc4ccco4)c(=N)n(CCc4ccccc4)c3nc12,1170 nM
27,Cc1nc(SCC(=O)Nc2ccc(F)cc2)c(C#N)c(C)c1CC(=O)c1ccc(Br)cc1,1660 nM
